{"source": "patent US10918654B1", "about": "“Rutin compositions” (Alps Pharmaceutical Ind. Co., Ltd., priority 2019, dated 2021)", "experiment": "Stability of the flavonoid in aqueous L-arginine/sodium ascorbate solution at 50° C., intact amount by HPLC", "type": "physicochemical", "details": "for amount of intact flavonoid remaining, of the initial amount in the solution: dissolved in water with L-arginine and sodium ascorbate, HPLC", "experimental": "A composition containing rutin, L-arginine, and ascorbate was prepared in water by mixing 0.0071 mol rutin with an aqueous solution containing 0.020 mol L-arginine, heating the mixture to 80° C. until the rutin dissolved completely, and adding 0.0010 mol sodium ascorbate.\nAfter cooling the above solution, the stability of rutin was tested by heating the mixture to 50° C. and quantifying the amount of intact rutin remaining by HPLC after 0 h, 5 h, and 24 h.", "data": [{"smiles": "C[C@@H]1O[C@@H](OC[C@H]2O[C@@H](Oc3c(-c4ccc(O)c(O)c4)oc4cc(O)cc(O)c4c3=O)[C@H](O)[C@@H](O)[C@@H]2O)[C@H](O)[C@H](O)[C@H]1O", "note": "[rutin]", "values": [{"measurement": "amount of intact flavonoid remaining, of the initial amount in the solution", "setting": "5 h at 50° C.", "value": 100, "unit": "%"}, {"measurement": "amount of intact flavonoid remaining, of the initial amount in the solution", "setting": "24 h at 50° C.", "value": 97.2, "unit": "%"}, {"measurement": "flavonoid degraded", "setting": "after 24 h at 50° C., with L-arginine and sodium ascorbate", "value": 2.8, "unit": "%"}]}]}
